Reference: ChEMBL document CHEMBL1201862, “PubChem BioAssay data set” (2004)
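Protocol summary: plate cells (96-well), add compound at 5 concentrations, incubate 48 h, interpolate endpoints linearly. GI50 is the concentration that inhibits growth by half.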 Active and inactive are the calls of the source. Cut-off read from the data, not from the text of the source: active = GI50 up to about 1.1 µM and inactive = higher.

Key:
Test in all cases: DTP human tumour cell line panel, 48 h
UACC-257 = test system: UACC-257
SW-620 = test system: SW-620
SK-MEL-5 = test system: SK-MEL-5
SF-268 = test system: SF-268
A498 = test system: A498
HCT-116 = test system: HCT-116
ACHN = test system: ACHN
A549 = test system: A549
Malme-3M = test system: Malme-3M
NCI-H522 = test system: NCI-H522
DU-145 = test system: DU-145
KM12 = test system: KM12
CCRF-CEM = test system: CCRF-CEM
K562 = test system: K562
LOX IMVI = test system: LOX IMVI
RPMI-8226 = test system: RPMI-8226
U-251 = test system: U-251
SF-295 = test system: SF-295
HCT-15 = test system: HCT-15
OVCAR-4 = test system: OVCAR-4

## Cn1c(=O)[nH]c2[nH]c3ccccc3c2c1=O
UACC-257
  GI50: > 100 µM (inactive)
SW-620
  GI50: > 100 µM (inactive)
SK-MEL-5
  GI50: > 100 µM (inactive)
SF-268
  GI50: > 100 µM (inactive)
A498
  GI50: > 100 µM (inactive)
HCT-116
  GI50: > 100 µM (inactive)
ACHN
  GI50: > 100 µM (inactive)
A549
  GI50: > 100 µM (inactive)
Malme-3M
  GI50: > 100 µM (inactive)
NCI-H522
  GI50: > 100 µM (inactive)
DU-145
  GI50: > 100 µM (inactive)
KM12
  GI50: > 100 µM (inactive)
CCRF-CEM
  GI50: > 100 µM (inactive)
K562
  GI50: > 100 µM (inactive)
LOX IMVI
  GI50: > 100 µM (inactive)
RPMI-8226
  GI50: 92 µM (inactive)
U-251
  GI50: > 100 µM (inactive)
SF-295
  GI50: > 100 µM (inactive)
HCT-15
  GI50: > 100 µM

## C1OCN2c3nonc3N3COCN4c5nonc5N1C2C43 (configuration not stated)
UACC-257
  GI50: > 100 µM (inactive)
SW-620
  GI50: > 100 µM (inactive)
SK-MEL-5
  GI50: > 100 µM (inactive)
SF-268
  GI50: > 100 µM (inactive)
A498
  GI50: > 100 µM (inactive)
HCT-116
  GI50: 57.4 µM (inactive)
ACHN
  GI50: > 100 µM (inactive)
A549
  GI50: > 100 µM (inactive)
Malme-3M
  GI50: > 100 µM (inactive)
NCI-H522
  GI50: > 100 µM (inactive)
DU-145
  GI50: > 100 µM (inactive)
KM12
  GI50: 49.2 µM (inactive)
CCRF-CEM
  GI50: 77.8 µM (inactive)
K562
  GI50: 78 µM (inactive)
OVCAR-4
  GI50: > 100 µM (inactive)
RPMI-8226
  GI50: > 100 µM (inactive)
U-251
  GI50: > 100 µM (inactive)
SF-295
  GI50: > 100 µM (inactive)
HCT-15
  GI50: 65.9 µM

## C/C(=N\NC(=S)N1CCN(c2ccccn2)CC1)c1ncccn1
UACC-257
  GI50: 0.0165 µM (active)
SW-620
  GI50: 0.196 µM (active)
SK-MEL-5
  GI50: 0.109 µM (active)
SF-268
  GI50: 0.0323 µM (active)
A498
  GI50: 2.07 µM (inactive)
HCT-116
  GI50: 0.00395 µM (active)
ACHN
  GI50: 0.0693 µM (active)
A549
  GI50: 0.166 µM (active)
Malme-3M
  GI50: 0.267 µM (active)
NCI-H522
  GI50: 0.0538 µM (active)
DU-145
  GI50: 2.51 µM (inactive)
KM12
  GI50: 0.254 µM (active)
CCRF-CEM
  GI50: 0.00615 µM (active)
K562
  GI50: 0.00711 µM (active)
LOX IMVI
  GI50: 0.0986 µM (active)
OVCAR-4
  GI50: 0.205 µM (active)
RPMI-8226
  GI50: 0.0131 µM (active)
U-251
  GI50: 0.0369 µM (active)
SF-295
  GI50: 0.0594 µM (active)
HCT-15
  GI50: 0.02 µM

## NNC(=O)c1ccccc1NC(=O)/C(=C/c1ccccc1)NC(=O)c1ccccc1
UACC-257
  GI50: 71.6 µM (inactive)
SW-620
  GI50: > 100 µM (inactive)
SK-MEL-5
  GI50: > 100 µM (inactive)
SF-268
  GI50: > 100 µM (inactive)
A498
  GI50: > 100 µM (inactive)
HCT-116
  GI50: 88.1 µM (inactive)
ACHN
  GI50: > 100 µM (inactive)
A549
  GI50: > 100 µM (inactive)
Malme-3M
  GI50: > 100 µM (inactive)
NCI-H522
  GI50: > 100 µM (inactive)
DU-145
  GI50: > 100 µM (inactive)
KM12
  GI50: 27.8 µM (inactive)
CCRF-CEM
  GI50: 43.6 µM (inactive)
K562
  GI50: > 100 µM (inactive)
LOX IMVI
  GI50: 68.1 µM (inactive)
OVCAR-4
  GI50: > 100 µM (inactive)
RPMI-8226
  GI50: > 100 µM (inactive)
U-251
  GI50: 58.6 µM (inactive)
SF-295
  GI50: > 100 µM (inactive)
HCT-15
  GI50: 46.7 µM

## COc1c(C)c(OC)c2c(c1O)[C@@H]1[C@@H]3Cc4c(OC)c(C)c(OC)c(O)c4[C@H](CNC(=O)c4ccc5ccccc5n4)N3[C@@H](C#N)[C@H](C2)N1C
UACC-257
  GI50: 0.00206 µM (active)
SW-620
  GI50: 0.00033 µM (active)
SK-MEL-5
  GI50: 0.000495 µM (active)
SF-268
  GI50: 0.000883 µM (active)
A498
  GI50: 0.000629 µM (active)
HCT-116
  GI50: 0.000491 µM (active)
ACHN
  GI50: 0.00199 µM (active)
A549
  GI50: 0.00263 µM (active)
Malme-3M
  GI50: 0.000162 µM (active)
NCI-H522
  GI50: 0.000144 µM (active)
DU-145
  GI50: 0.00206 µM (active)
KM12
  GI50: 0.000371 µM (active)
K562
  GI50: 0.000537 µM (active)
LOX IMVI
  GI50: 0.00026 µM (active)
OVCAR-4
  GI50: 0.00217 µM (active)
RPMI-8226
  GI50: 0.000324 µM (active)
U-251
  GI50: 0.000632 µM (active)
SF-295
  GI50: 0.0018 µM (active)
HCT-15
  GI50: 0.0101 µM
